Laboratory results as given in patent publication US20230355622A1, “METHODS OF CHEMOVACCINATION AGAINST PLASMODIUM INFECTIONS” (Merck Sharp & Dohme LLC, priority 2020, published 2023).
Read-outs that look alike come from different tables or passages of the source.

Test system: parasite
Assay: Parasite LDH growth assay (Parasite Assay), antiparasite potency
Type: cell-based
Conditions: parasite LDH growth assay, ring stage parasites, 72 hours incubation at 37° C., read-out: EC50
Procedure: Assessing Antiparasite Potency in a Parasite LDH Growth Assay (Parasite Assay)
The parasite stock was maintained at 4% haematocrit in RPMI-Hepes media buffered with sodium bicarbonate and supplemented with 5% heat inactivated human serum and 0.5% albumax.
On the day of assay set up, a blood smear of the parasite culture was Giemsa stained and counted. The parasitemia was adjusted to 0.7% rings and the haematocrit was diluted to 2% in RPMI-Hepes media buffered with sodium bicarbonate and supplemented with 5% heat inactivated human serum and 0.5% albumax. 30 ul of diluted parasites are then added into 10 ul of media+compound in pre-prepared Greiner TC assay plates. Parasite assay plates were placed in gassed humidified boxes in single layer and allowed to incubate at 37° C. for 72 hours. After 72 hours growth, assay plates are sealed with parafilm and frozen flat, in single file at −80° C. overnight. On the following day, assay plates are allowed to thaw at room temperature for 4 hours to which an LDH assay is performed to measure parasite growth.

SMILES | EC50 (72 h) [nM] | EC50 [nM]
CCC1(CC)CC(=O)N([C@H]2c3cc(C(=O)N[C@H]4CC(C)(C)Oc5ccccc54)ccc3OC[C@@H]2OC)C(=N)N1 [Example 68A, (3R,4S)-4-(4,4-diethyl-2-imino-6-oxotetrahydropyrimidin-1(2H)-yl)-N-((S)-2,2-dimethylchroman-4-yl)-3-methoxychromane-6-carboxamide] | 1 | –
CCC1(CC)CC(=O)N([C@H]2c3cc(C(=O)N[C@@H]4c5ccccc5C[C@H]4O)ccc3OCC2OC)C(=N)N1 (stereo partly drawn) [Example 72A, (3R,4S)-4-(4,4-diethyl-2-imino-6-oxotetrahydropyrimidin-1(2H)-yl)-N-((1R,2R)-2-hydroxy-2,3-dihydro-1H-inden-1-yl)-3-methoxychromane-6-carboxamide] | – | 0.5
CCC1(CC)CC(=O)N([C@H]2c3cc(C(=O)N[C@@H]4c5ccccc5OC(C)(C)[C@H]4O)ccc3OC2(C)COC)C(=N)N1 (stereo partly drawn) [Example 73A, (2S,3S)-3-(4,4-diethyl-2-imino-6-oxotetrahydropyrimidin-1(2H)-yl)-N-((3S,4R)-3-hydroxy-2,2-dimethylchroman-4-yl)-2-(methoxymethyl)-2-methyl-2,3-dihydrobenzofuran-5-carboxamide] | – | 0.3
CCC1(CC)CC(=O)N([C@H]2c3cc(C(=O)N[C@H]4CC(C)(C)Oc5ccccc54)ccc3OC2(C)COC)C(=N)N1 (stereo partly drawn) [Example 74A, (2S,3S)-3-(4,4-diethyl-2-imino-6-oxotetrahydropyrimidin-1(2H)-yl)-N-((S)-2,2-dimethylchroman-4-yl)-2-(methoxymethyl)-2-methyl-2,3-dihydrobenzofuran-5-carboxamide] | – | 0.3
CCC1(CC)CC(=O)N([C@@H]2Cc3ccc(C(=O)N[C@@H]4c5ccccc5C[C@H]4O)cc32)C(=N)N1 [Example 83, (8R)-8-(4,4-diethyl-2-imino-6-oxo-hexahydropyrimidin-1-yl)-N-[(1R,2R)-2-hydroxyindan-1-yl]bicyclo[4.2.0]octa-1(6),2,4-triene-3-carboxamide] | 20 | –
CC1(C)CC(=O)N([C@@H]2CCc3ccc(C(=O)N[C@H]4CC(C)(C)Oc5ccccc54)cc32)C(=N)N1 [Example 84, (3R)-N-[(4S)-2,2-dimethylchroman-4-yl]-3-(2-imino-4,4-dimethyl-6-oxo-hexahydropyrimidin-1-yl)indane-5-carboxamide] | 0.9 | –
CC1(C)CC(=O)N(C2c3cc(C(=O)N[C@@H]4c5ccccc5C[C@H]4O)ccc3CC2(C)C)C(=N)N1 (stereo partly drawn) [Example 87, N-[(1R,2R)-2-hydroxyindan-1-yl]-3-(2-imino-4,4-dimethyl-6-oxo-hexahydropyrimidin-1-yl)-2,2-dimethyl-indane-5-carboxamide] | 105 | –
C[C@@H]1C[C@@H](N2C(=N)NC(C)(C)CC2=O)c2cc(C(=O)N[C@@H]3c4ccccc4OC[C@@]3(C)O)ccc21 [Example 104, (1R,3R)-N-[(3S,4R)-3-hydroxy-3-methyl-chroman-4-yl]-3-(2-imino-4,4-dimethyl-6-oxo-hexahydropyrimidin-1-yl)-1-methyl-indane-5-carboxamide] | 5 | –
COC1COc2ccc(C(=O)N[C@@H]3c4ccccc4C[C@H]3O)cc2C1N1C(=N)NC(C)(C)CC1=O (stereo partly drawn) [Example 110, N-[(1R,2R)-2-hydroxyindan-1-yl]-4-(2-imino-4,4-dimethyl-6-oxo-hexahydropyrimidin-1-yl)-3-methoxy-chromane-6-carboxamide] | 60 | –
CCC1(CC)CC(=O)N([C@@H]2CCOc3ccc(C(=O)N[C@@H](C)c4ccccc4OC)cc32)C(=N)N1 [Example 111, (4R)-4-(4,4-diethyl-2-imino-6-oxo-hexahydropyrimidin-1-yl)-N-[(1S)-1-(2-methoxyphenyl)ethyl]chromane-6-carboxamide] | 90 | –
CCC1(CC)CC(=O)N([C@H]2c3cc(C(=O)N[C@@H]4c5ccccc5C[C@H]4O)ccc3OC[C@H]2C)C(=N)N1 [Example 118, (3S,4R)-4-(4,4-diethyl-2-imino-6-oxo-hexahydropyrimidin-1-yl)-N-[(1R,2R)-2-hydroxyindan-1-yl]-3-methyl-chromane-6-carboxamide] | 0.9 | –
